# Results: US11091428B2 (HAPLOGEN GMBH, priority 2016, dated 2021)
# Tests used:
# PLA2G16 = target: T1, PLA2G16 (Homo sapiens, UniProt P53816); assay: Enzyme activity assay for PLA2G16 (Red/Green BODIPY PC-A2 fluorescence); assay type: biochemical; conditions: His-tagged PLA2G16, 4 min pre-incubation, 2 nM to 50 μM; read-out: IC50 values of the compounds determined in the enzyme activity assay for PLA2G16
# T1 construct: Hexa-His (N); made in house; host or cells: E. coli BL21(DE3)
# T1 sequence (P53816 1-162): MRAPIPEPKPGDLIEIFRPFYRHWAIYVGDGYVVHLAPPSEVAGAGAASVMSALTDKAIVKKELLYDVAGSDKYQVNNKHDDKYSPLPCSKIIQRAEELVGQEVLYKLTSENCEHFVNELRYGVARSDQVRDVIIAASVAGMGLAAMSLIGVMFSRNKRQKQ
# From the text: A cDNA for PLA2G16(NM_007069) was custom-synthesized by Genscript (Piscataway, USA) and inserted into a pET-based bacterial expression vector [Moffatt, B. A. and Studier, F. W. (1986) J. Mol. Biol. 189, 113-130; Rosenberg, A. H., Lade, B. N., Chui, D., Lin, S., Dunn, J. J., and Studier, F. W. (1987) Gene 56, 125-135], enabling the expression of N-terminally Hexa-His-tagged PLA2G16. E. coli BL21(DE3) (Agilent) were transformed with pET-His-PLA2G16according to the manufacturer's instructions and plated on Carbenicillin-containing agar plates (final concentration: 100 μg/mL). A single clone was in occulated in 100 mL LB medium supplemented with 100 μg/mL Carbenicillin and the in occulated culture was grown at 37° C. overnight in a rotary shaker. On the next day, the bacterial culture was diluted in LB medium supplemented with 100 μg/mL Carbenicillin (30 mL overnight culture in 800 mL total culture volume). Bacteria were grown at 37° C. until the OD600 reached 0.6. Gene expression was induced by addition of 1 mM isopropyl-β-D-thiogalactopyranosid (IPTG) for 2 h at 18° C. Subsequently, bacteria were harvested by centrifugation (15 min; 10,000×g; 4° C.) and frozen at −80° C. The bacterial pellet was resuspended in Buffer A (50 mM Tris/HCl pH 7.5, 500 mM NaCl, 5% glycerol, 5 mM β-Mercaptoethanol and 1 mM PMSF) and lysed by addition of 1 mg/mL lysozyme (Sigma Aldrich) and 100 μg/mL DNasel-(Roche). The sample was incubated at 30° C. for 30 min to allow lysis to occur. Then, the lysate was cleared by centrifugation (15,000×g, 15 min, 4° C.) and incubated with 1.5 mL Ni-NTA agarose suspension (Qiagen) for 60 min at 4° C. The Ni-NTA agarose was washed with 10 mL Buffer A. Bound protein was eluted by applying a manual gradient of Buffer A supplemented with increasing concentrations of imidazole (Sigma Aldrich; 25/50/75/100/250 mM). Purified fractions were analyzed by SDS-PAGE followed by Coomassie staining to assess the purity.
# Activity of the protein was assessed as follows: Red/Green BODIPY® PC-A2 (Invitrogen, 1 mM in DMSO) was mixed with equal volumes of 1,2-Dioleoyl-sn-glycero-3-phosphocholine (DOPC; Sigma Aldrich, 10 mM in Ethanol) and 1,2-Dioleoyl-sn-glycero-3-phospho-rac-(1-glycerol) (DOPG; Sigma Aldrich, 10 mM in Ethanol) and 0.5 volumes of Cholesterol (CHOL; Sigma Aldrich, 10 mM in Ethanol) and vortexed for 5 s. The mixture (Red/Green BODIPY® PC-A2/DOPC/DOPG/CHOL) was diluted 1:91.4 in activity assay buffer (50 mM Tris/HCl pH 8.5, 100 mM NaCl) using a small-orifice pipette tip under constant vortexing. In the following, this preparation will be referred to as the “substrate solution”.
# In order to evaluate their inhibitory potential, compounds were dissolved at 10 mM concentration in DMSO and directly spotted into assay plates (Corning, Cat. No. 3576) using acoustic liquid transfer (Labcyte Echo 525). Each compound was spotted at increasing concentrations, ranging from 2 nM to 50 μM (concentration in the final assay volume). 50 μl of PLA2G16 enzyme solution (diluted in activity buffer, supplemented with 5 mM L-Glutathione; Sigma Aldrich) was pre-incubated with compounds for 4 min., followed by addition of 50 μl of substrate solution. Fluorescence was recorded immediately after substrate addition for a total time of 10 min. using a SpectraMax M5 multimode reader (Excitation wavelength: 480 nm, emission wavelength: 530 nm). The relative increase of fluorescence over time is referred to as the enzyme activity. Half-maximal inhibitory concentrations (IC50) were derived by non-linear regression analysis using the drc package in R (R Development. Core Team, 2005).
# [1] = system: picornaviruses (CVB1, HRV-A2, HRV-A23, EV-68); assay: Anti-picornavirus cytopathic effect (CPE) reduction assay on HeLa H1 cells; assay type: cell-based; conditions: Enterovirus B, HeLa H1, 48 h, HeLa H1 cells, 48 h, category from averaging the EC50 values from four picornaviruses (CVB1, HRV-A2, HRV-A23, EV68); read-out: EC50 values of the compounds determined in the anti-picornavirus assay
# Description: The antiviral activity of selected compounds was tested using a cytopathic effect (CPE) reduction assay on HeLa H1 cells (ATCC CRL-1958). Briefly, cells were seeded in 96-well dishes (2×10^4 cells/well) in DMEM medium (Life technologies) supplemented with 10% FBS and PenStrep solution (100 U/mL Penicillin and 100 μg/mL streptomycin) and incubated at 37° C., 5% CO2 ovemight. The next day, cells were pre-treated with serial dilutions of the compound in DMEM medium supplemented with 2% FBS and PenStrep for 2 h at 37° C., 5% CO2. Next, cells were infected with virus (CVB1, HRV-A2, HRV-A23, EV-68) at an multiplicity of infection (MOI) which results in a complete virus-induced CPE within 2 days in control wells (infected and vehicle-treated). After 48 h, supematants were aspirated and 50 μl/well of CellTiterBlue reagent (Promega) diluted 1:5 in DMEM+2% FBS, was added to the cells. Plates were returned to the incubator and allowed to develop for 1.5 h. After that, plates were equilibrated to RT and subsequently, fluorescence was recorded (Excitation wavelength: 560 nm; emission wavelength: 590 nm) using a SpectraMax M5 multimode plate reader. Viability of cells was calculated according to the formula: V=(RFUCpd−RFUVeh/(RFUM−RFUVeh), where RFUCpd refers to infected and compound-treated cells, RFUVeh to infected and vehicle-treated cells and RFUM to uninfected and vehicle treated cells. Half-maximal effective concentrations (EC50) were calculated by non-linear regression analysis using the drc package in R (R Development. Core Team, 2005). EC50 categories as presented in Table 2 were calculated by averaging the EC50 values from four picornaviruses (CVB1, HRV-A2, HRV-A23, EV68).
SMILES,IC50 (PLA2G16) [nM],EC50 [1] [nM]
"CC(NC(=O)c1cccc(Cl)c1)C(=O)C(=O)NCC1CC1 (stereo not drawn) [FP 172, 3-[(3-Chlorophenyl)formamido]-N-(cyclopropylmethyl)-2-oxobutanamide]",< 1000,1000 to 10000
"CC(C)CNC(=O)C(=O)C(C)OC1CCCCC1 (stereo not drawn) [FP 124, 3-(Cyclohexyloxy)-N-(2-methylpropyl)-2-oxobutanamide]",< 1000,< 1000
"COc1ccccc1C(=O)NC(C)C(=O)C(=O)NCC1CC1 (stereo not drawn) [FP 168, N-(Cyclopropylmethyl)-3-[(2-methoxyphenyl)formamido]-2-oxobutanamide]",< 1000,1000 to 10000
"O=C(NCCNC(=O)C1CCC1)C(=O)[C@H]1CCC(=O)N1Cc1ccccc1 [FP 332, 2-[(2R)-1-Benzyl-5-oxopyrrolidin-2-yl]-N-[2-(cyclobutylformamido)ethyl]-2-oxoacetamide]",< 1000,1000 to 10000
"O=C(NCCCc1nccs1)C(=O)C1CCC(=O)N1Cc1ccccc1 (stereo not drawn) [FP 229, 2-(1-Benzyl-5-oxopyrrolidin-2-yl)-2-oxo-N-[3-(1,3-thiazol-2-yl)propyl]acetamide]",< 1000,< 1000
"O=C(NC1CC1)C(=O)[C@H]1CCC(=O)N1Cc1ccc(Cl)cc1 [FP 284, 2-[(2R)-1-[(4-Chlorophenyl)methyl]-5-oxopyrrolidin-2-yl]-N-cyclopropyl-2-oxoacetamide]",< 1000,< 1000
"CC(C)[C@@H](C(=O)C(=O)NCC1CC1)N(C=O)CC(C)(C)C (single isomer, unassigned) [FP 33]",< 1000,1000 to 10000
"CC(C)CC(C(=O)C(=O)NCC1CC1)N(C=O)CC1CCCO1 (stereo not drawn) [FP 74, N-(Cyclopropylmethyl)-5-methyl-2-oxo-3-{N[(oxolan-2-yl)methyl]formamido} hexanamide]",< 1000,1000 to 10000
"CC(C(=O)C(=O)NCC1CC1)N(C)C(=O)C1CCCCC1 (stereo not drawn) [FP 150, 3-(1-Cyclohexyl-N-methylformamido)-N-(cyclopropylmethyl)-2-oxobutanamide]",< 1000,1000 to 10000
"CC(NS(=O)(=O)c1ccc(F)cc1)C(=O)C(=O)NCC1CC1 (stereo not drawn) [FP 219, N-(Cyclopropylmethyl)-3-(4-fluorobenzenesulfonamido)-2-oxobutanamide]",< 1000,1000 to 10000
"CC(NC(=O)c1ccc(Cl)cc1)C(=O)C(=O)NCC1CC1 (stereo not drawn) [FP 170, 3-[(4-Chlorophenyl)formamido]-N-(cyclopropylmethyl)-2-oxobutanamide]",< 1000,1000 to 10000
"CC(C)CC(C(=O)C(=O)NCC1CC1)N(C=O)CC1CCOCC1 (stereo not drawn) [FP 63, N-(Cyclopropylmethyl)-5-methyl-3-{N-[(oxan-4-yl)methyl]formamido}-2-oxohexanamide]",< 1000,< 1000
"CCC(NC(=O)c1ccccc1)C(=O)C(=O)NC1CC1 (stereo not drawn) [FP 183, N-Cyclopropyl-2-oxo-3-(phenylformamido)pentanamide]",1000 to 10000,> 10000
"N#CCCNC(=O)C(=O)[C@H]1CCC(=O)N1Cc1ccccc1 [FP 262, 2-[(2R)-1-Benzyl-5-oxopyrrolidin-2-yl]-N-(2-cyanoethyl)-2-oxoacetamide]",< 1000,1000 to 10000
"CC(C(=O)C(=O)NCC1CCCCC1)N(C=O)c1cc[nH]c(=O)c1 (stereo not drawn) [FP 192, N-(Cyclohexylmethyl)-2-oxo-3-[N-(2-oxo-1,2-dihydropyridin-4-yl)formamido]butanamide]",< 1000,> 10000
"O=C(NC1CCCC1)C(=O)C1CCC(=O)N1CC1CC1 (stereo not drawn) [FP 254, N-Cyclopentyl-2-[1-(cyclopropylmethyl)-5-oxopyrrolidin-2-yl]-2-oxoacetamide]",< 1000,1000 to 10000
"NC(=O)c1ccc(CN2C(=O)CCC2C(=O)C(=O)NCC2CCCCC2)cc1 (stereo not drawn) [FP 252, 4-[(2-{[(Cyclohexylmethyl)carbamoyl]carbonyl}-5-oxopyrrolidin-1-yl)methyl]benzamide]",< 1000,1000 to 10000
"Cn1nccc1CNC(=O)C(=O)[C@H]1CCC(=O)N1Cc1ccccc1 [FP 296, 2-[(2R)-1-Benzyl-5-oxopyrrolidin-2-yl]-N-[(1-methyl-1H-pyrazol-5-yl)methyl]-2-oxoacetamide]",< 1000,1000 to 10000
"CC(C)C(C(=O)C(N)=O)N(C=O)Cc1ccccc1 (stereo not drawn) [FP 198, 3-(N-Benzylformamido)-4-methyl-2-oxopentanamide]",1000 to 10000,> 10000
"CC(C)CC(OCC1CCOCC1)C(=O)C(=O)NCC1CC1 (stereo not drawn) [FP 130, N-(Cyclopropylmethyl)-5-methyl-3-[(oxan-4-yl)methoxy]-2-oxohexanamide]",< 1000,1000 to 10000
"Cc1cc(CNC(=O)C(=O)[C@H]2CCC(=O)N2Cc2ccccc2)no1 [FP 289, 2-[(2R)-1-Benzyl-5-oxopyrrolidin-2-yl]-N-[(5-methyl-1,2-oxazol-3-yl)methyl]-2-oxoacetamide]",< 1000,< 1000
"CC(NS(=O)(=O)c1ccccc1)C(=O)C(=O)NCC1CC1 (stereo not drawn) [FP 187, 3-Benzenesulfonamido-N-(cyclopropylmethyl)-2-oxobutanamide]",< 1000,1000 to 10000
"CC(NS(=O)(=O)c1ccc(Cl)cc1)C(=O)C(=O)NCC1CC1 (stereo not drawn) [FP 215, 3-(4-Chlorobenzenesulfonamido)-N-(cyclopropylmethyl)-2-oxobutanamide]",< 1000,1000 to 10000
"O=C(NC1CC1)C(=O)C1CCC(=O)N1Cc1ccc(Cl)c(F)c1 (stereo not drawn) [FP 232, 2-{1-[(4-Chloro-3-fluorophenyl)methyl]-5-oxopyrrolidin-2-yl}-N-cyclopropyl-2-oxoacetamide]",< 1000,1000 to 10000
